Measurements published in publication PMC11200585, “Prospects for Prostate Cancer Chemotherapy: Cytotoxic Evaluation and Mechanistic Insights of Quinolinequinones with ADME/PK Profile” (Biomedicines, 2024).

How the values were obtained:
[1] = In vitro metabolic stability; type: in vitro ADME; conditions: for % Metabolism in 30 min: 0.5 µM, 0.5 mg/mL protein; for half-life at 0.5 µM / microsomal CLint at 0.5 µM: pH 7.4
Method: S2. ADME and PK Profiling
S2.1. In vitro Metabolic Stability Study […]
metabolic stability of AQQ1 and AQQ2. A final protein (liver microsomal) concentration of 0.5 mg/mL and final test substance (AQQ1 and AQQ2) concentration of 0.5 µM were used for the study. To the respective microsomes at a volume of 12.5 µL in the well, 2.5 µL of test substance ([…] in acetonitrile: dimethyl sulfoxide, 96:4) in the presence and absence of NADPH (50 µL, 10 mM) were added and the final volume made up to 500 µL with sodium phosphate buffer (50 mM, pH 7.4). The one without NADPH served as control. Sampling (50 µL) were done at the following time points: 0, 5, 10, 15, and 30 min for sample and at 0 and 30 min for control.
Acetonitrile (150 µL) was used as quenching solvent, internal standard (Rolipram) was added, vortexed/centrifuged and the aliquot from the supernatant was analyzed using LC-MS/MS. All the experiments were performed in duplicate.

DU-145 cells [2] = experiment: Colony formation assay; type: cell-based, human; conditions: 24 h treatment, 10 days growth
Method: DU-145 cells were seeded in 6-well plates at a density of 1000 cells/well and allowed to incubate overnight. Then, the cells were treated with varying concentrations of AQQ1 (1, 2.5, and 5 µM) along with negative control and 2.5 µM DOXO for 24 h. After a medium refreshment, the cells were allowed to grow for 10 days. After incubation, the colonies are fixed with cold methanol for 5 min and then stained with a 0.5% crystal violet solution (prepared in 10% methanol) for 20 min. The plates were allowed to air-dry and the colonies were counted manually.

DU-145 cells [3] = experiment: Scratch assay (cell migration); type: cell-based; conditions: Homo sapiens, 24 h, read-out: DU-145 cell migration inhibited
Method: DU-145 cells were grown in 6-well plates until they reached confluence. A straight-line scratch was then carefully created in the cell layer using a sterile pipette tip. The medium was replaced to remove any detached cells. The cells were treated with varying concentrations of AQQ1 (1, 2.5, and 5 µM) along with negative control for 24 h and the cells were allowed to migrate into the denuded area. The brightfield images were taken under the microscope at 0 h and over 24 h. The extent of wound closure is quantified by measuring the change in the width of the scratch with Fiji Image J wound healing size macro [20].

[4] = In vivo bioavailability / pharmacokinetic study IV and PO; design: species or system male Sprague-Dawley rats; conditions: rat; for AUC(0-inf) / AUC(0-t) / C0 / MRT last / Vd / clearance / half-life / Cmax / Tmax: male, Sprague-Dawley, whole blood; for Tmax: median
Method: Using the validated Phoenix® WinNonlin® 8.3 NCA tool Version 8 or higher (Certara L.P.), USA, pharmacokinetic parameters were computed. As appropriate, Cmax, Tmax, and exposures (AUCinfinity and AUClast) were calculated. Furthermore, pharmacokinetic characteristics such as distribution volume (Vd), […] (CL), elimination half-life (T1/2), and parenteral route like (C0) were evaluated. Using dose-normalized non-intravenous exposure versus dose-normalized intravenous exposure, oral bioavailability (F%) was computed (Table 5).
S2.2. In vivo Bioavailability Study of AQQ1 and AQQ2 in Male Sprague-Dawley Rats Sprague-Dawley rats (HyLasco Biotechnology (India) Pvt. Ltd., a subsidiary of Charles River from the US) of 8-12 weeks of age (at the time of treatment), weighing between 220 and 320 g, […]
Housing: Animals were housed in polysulfonate cages in a typical research laboratory environment at 25 ± 3°C and 50%-70% relative humidity with approximately 12 h light and dark cycles maintained with an enrichment device. During the study, the animals had access to a rat maintenance diet (Altromin Spezialfutter GmbH, Germany) and purified water (UV-treated, […]
Animal experiments were conducted in accordance with the guidelines of the Committee for the Purpose of Control and Supervision of Experiments on Animals (CPCSEA), Ministry of […], Government of India, and approved by the Institutional Animal Ethics Co m m i tt e e . […] AQQ1 a n d AQQ2 in NMP (10%) + PBS (pH 7.4) qs was administered intravenously at a dose of 1 mg/kg bw (10 mL/kg). AQQ1 and AQQ2 in NMP (10%) + Cremophor EL (5%) + PEG400 (30%) + PG (20%) + PBS (pH 7.4) qs was administered PO at a dose of 5 mg/kg bw (10 mL/kg). The animal weight on the day of dosing was used to calculate the required volume of the formulation and administered to the rats.
After dosing, blood samples (~0.250 mL) were collected from the jugular vein at the following time points: 0.083 (IV only), 0.25, 0.5, 1, 2, 4, 6, 8, and 24 h using a serial sampling design (equal volumes of heparinized saline were replaced after each sample collection). The samples were collected in pre-labeled microcentrifuge tubes containing K2EDTA (20 μL of 200 mM solution […]
per mL of blood) as an anticoagulant. The blood samples were stored at -60°C until bioanalysis using the fit-for-purpose LC-MS/MS method. Pharmacokinetic parameters were calculated using the non-compartmental analysis (NCA) tool of the validated Phoenix® WinNonlin® 8.3.
Group Treatment/Route Dose (mg/kg) Dose volume (mL/kg) Stregth

DU-145 cells [5] = experiment: Cell cycle assay (flow cytometry, PI); type: cell-based, human; conditions: 24 h, highest concentrations
Method: Cells were subjected to AQQ1 and DOXO treatments as previously described for apoptosis necrosis analysis. For cell cycle analysis, a cell population of 1 × 10^6 was collected, centrifuged, and the supernatant was removed. The resulting cellular pellet was re-suspended in 70% cold ethanol in PBS. Subsequently, the cells underwent a single PBS wash, followed by incubation in PBS containing […] PI (Sigma-Aldrich, St. Louis, MO, USA) and 2 mg/mL DNase-free RNase-A (Affymetrix, Inc., Santa Barbara, CA, USA) for 30 min at room temperature in a light-protected environment. Analysis was performed using the BD FACS Calibur Flow Cytometry System, and the BD CellQuest Pro Software software (version 5.1, Becton Dickinson, USA) was employed to determine cell cycle phase distributions in comparison to the control group.

Row | SMILES | % Metabolism in 30 min ([1]; Human liver microsomes) | % Metabolism in 30 min ([1]; Mouse liver microsomes) | half-life at 0.5 µM ([1]; Human liver microsomes) | microsomal CLint at 0.5 µM ([1]; Human liver microsomes) | half-life at 0.5 µM ([1]; Mouse liver microsomes) | microsomal CLint at 0.5 µM ([1]; Mouse liver microsomes) | AUC(0-inf) ([4]; IV 1 mg/kg) | AUC(0-t) ([4]; IV 1 mg/kg) | C0 ([4]; IV 1 mg/kg) | MRT last ([4]; IV 1 mg/kg) | Vd ([4]; IV 1 mg/kg) | clearance ([4]; IV 1 mg/kg) | half-life ([4]; IV 1 mg/kg) | AUC(0-inf) ([4]; PO 5 mg/kg) | AUC(0-t) ([4]; PO 5 mg/kg) | Cmax ([4]; PO 5 mg/kg) | MRT last ([4]; PO 5 mg/kg) | half-life ([4]; PO 5 mg/kg) | Tmax ([4]; PO 5 mg/kg) | plasma clearance relative to normal hepatic blood flow of rats ([4]; IV 1 mg/kg) | other results
1 | COc1ccccc1NC1=C(Cl)C(=O)c2nc(C)ccc2C1=O [AQQ1] | 39.5% | 63% | > 0.5 h | 39 µL/min/mg | 0.342 h | 68.5 µL/min/mg | 115 ± 45.7 ng·h/mL | 77.5 ± 9.81 ng·h/mL | 90.8 ± 71.3 ng/mL | 3.77 ± 0.279 h | 90.3 ± 40 L/kg | 161 ± 62.9 mL/min/kg | 9.35 ± 8.75 h | 4000 ± 179 ng·h/mL | 3810 ± 111 ng·h/mL | 435 ± 18.1 ng/mL | 7.47 ± 0.367 h | 5.22 ± 0.843 h | 0.5 h | approximately 2.93 fold | colony-forming ability (DU-145 cells [2]): significantly reduced the colony-forming ability; inhibition at 1 µM (DU-145 cells [3]; 1 μM): 13.4%; inhibition at 2.5 µM (DU-145 cells [3]; 2.5 μM): 23.7%; inhibition at 5 µM (DU-145 cells [3]; 5 μM): 49.8%; population of cells in the G0/G1 phase (DU-145 cells [5]): significantly increased the population of cells in the G0/G1 phase
2 | CCOc1ccccc1NC1=C(Cl)C(=O)c2nc(C)ccc2C1=O [AQQ2] | 47% | 96.5% | 0.442 h | 52 µL/min/mg | 0.0917 h | 249 µL/min/mg | 110 ± 18.1 ng·h/mL | 77 ± 21 ng·h/mL | 23.2 ± 12.8 ng/mL | 6.84 ± 1.84 h | 147 ± 9.71 L/kg | 154 ± 26.9 mL/min/kg | 12.8 ± 2.95 h | 2370 ± 375 ng·h/mL | 2300 ± 416 ng·h/mL | 282 ± 79.4 ng/mL | 6.61 ± 0.787 h | 4.72 ± 1.16 h | 1 h | approximately 2.8 fold | volume of distribution relative to 0.7 L/kg total body fluids ([4]; IV 1 mg/kg): approximately 210 fold
